Tests used:
[1] = molecular target: T1, human RARβ2 receptors (Homo sapiens, UniProt P10826); conditions: as described in Lund et al. (2005, J. Med. Chem., 48, 7517-7519); cited from earlier work
T1 sequence (P10826 1-448 isoform P10826-2): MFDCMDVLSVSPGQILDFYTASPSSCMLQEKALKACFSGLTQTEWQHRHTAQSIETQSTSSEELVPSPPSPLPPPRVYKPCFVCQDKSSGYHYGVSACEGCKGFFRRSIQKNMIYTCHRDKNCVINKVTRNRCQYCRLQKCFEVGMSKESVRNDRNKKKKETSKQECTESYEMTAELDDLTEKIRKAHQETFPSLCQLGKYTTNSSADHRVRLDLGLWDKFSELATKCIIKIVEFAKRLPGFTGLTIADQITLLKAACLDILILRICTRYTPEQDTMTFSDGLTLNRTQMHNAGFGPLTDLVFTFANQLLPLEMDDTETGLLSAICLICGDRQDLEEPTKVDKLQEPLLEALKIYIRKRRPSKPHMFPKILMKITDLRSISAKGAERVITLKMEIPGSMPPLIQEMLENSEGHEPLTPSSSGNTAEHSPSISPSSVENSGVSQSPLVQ

[2] = Tolerability and general observations (food intake, body weight, blood alcohol, hepatic drug level, hepatotoxicity, fibrosis) in liquid ethanol diet study; assay type: in vivo, mouse (male C57BL/6J)
Text: (§1) Liquid Ethanol Diet. Male C57BL/6J mice (8-9-weeks-old) (n=30) were purchased from Jackson Laboratory. Animals were housed in standard cages with 2-mice per cage and fed a standard vivarium chow (rodent diet #2014, Harlan-Teklad, Madison, WI). After acclimation to liquid feeding, mice were switched to the Lieber-DeCarli-liquid alcohol diet for 3 weeks using the following groups: 1) Control diet-fed mice (aka Pair-fed (PF), n=6), 2) Pair-fed mice+RARβ2 specific agonist AC261066 (Tocris #4046), at 10 mg/kg/day [Pair-fed+AC261, (n=4)] (PF-AC), 3) Alcohol-treated (5% ethanol (EtOH) v/v plus vehicle [0.1% DMSO], n=10) (EtOH), and iv) 4) EtOH+AC261, [10 mg/kg/day], n=10)] (EtOH-AC).

[3] = system: ALDH1A1; assay: Hepatic ALDH1A1 protein by western blot and IHC in liquid ethanol diet model; assay type: in vivo, mouse (male C57BL/6J); conditions: EtOH-AC vs EtOH mice
Text: as §1
(§2) AC261066 and ethanol modulate centrilobular protein expression of ALDH1A1, CYP2E1, and Oxidative Stress. ALDH1A1 is one of the rate-limiting enzymes in the oxidation of retinaldehyde to RA and a key contributor to hepatic RA synthesis, as mice lacking ALDH1A1 show reduced hepatic levels of RA. […] Therefore, hepatic protein levels of ALDH1A1 were measured next, as it was the only ALDH1A isoform to increase in EtOH compared to PF mice. […] Therefore, given that high levels of ALDH1A1 were specifically detected only in zone 2-3, centrilobular regions, hepatic CYP2E1 protein levels were next measured by western blot and IHC, and by IHC, 4-HNE, as an indirect readout of oxidative stress. […]

[4] = system: ethanol-fed mice; assay: Hepatic steatosis (histopathology, Oil Red O, hepatic triglycerides) in Lieber-DeCarli liquid ethanol diet model of early ALD; assay type: in vivo, mouse (male C57BL/6J); conditions: EtOH-AC261 vs EtOH mice, 10 mg/kg/day, 3 weeks
Text: as §1

[5] = system: ethanol-fed mice; assay: Plasma AST and ALT activity (liver injury markers) in liquid ethanol diet model; assay type: in vivo, mouse (male C57BL/6J); conditions: EtOH-AC261 vs EtOH mice; 10 mg/kg/day, 3 weeks
Text: as §1

[6] = system: genes involved in de novo lipogenesis and fatty acid β-oxidation; assay: RNA-seq of hepatic transcripts of lipid metabolism genes in liquid ethanol diet model; assay type: in vivo, mouse (male C57BL/6J)
Text: as §1
The mechanism by which AC261066 functions in lipid metabolism, including de novo lipogenesis and fatty acid β-oxidation in the liver, was assessed.

[7] = system: CYP2E1; assay: Hepatic CYP2E1 protein by western blot and IHC in liquid ethanol diet model; assay type: in vivo, mouse (male C57BL/6J); conditions: EtOH-AC261066 vs EtOH mice
Text: as §1, §2

[8] = system: 4-HNE; assay: Hepatic 4-HNE IHC (indirect readout of oxidative stress) in liquid ethanol diet model; assay type: in vivo, mouse (male C57BL/6J); conditions: EtOH-AC261 vs EtOH mice
Text: as §1, §2

[9] = 5% ETOH-fed mice with vs without AC261066
[10] = 5% ETOH-fed plus AC261066 vs ETOH-fed mice without AC261066

Compound: CCCCCCCCc1ccc(-c2ccc(C(=O)O)cc2)cc1 [AC55649]
- isoform selectivity of agonism at human RARβ2 receptors [1]: highly isoform-selective agonists

Compound: CCCCOCCOc1nc(-c2ccc(C(=O)O)c(F)c2)sc1C [AC261066]
- changes to hepatic steatosis, triglyceride levels, fibrosis, or liver injury ([2]; PF+AC261 mice (pair-fed, no ethanol), 10 mg/kg/day, 3 weeks): No evidence was found of changes
- daily food intake and body weights ([2]; all groups, entire length of the study): no group differences
- hepatoxicity or fibrosis ([2]; concomitant administration of AC261 with EtOH, 3 weeks): no evidence
- effect of EtOH on hepatic AC261 levels ([2]; concomitant administration with EtOH, 3 weeks): did not adversely impact
- reduction in zone 2-3, centrilobular ALDH1A1 protein immunoreactivity ([3]; IHC): 40%
- reduction in ALDH1A1 total protein ([3]; western blot): 32%
- reduction in Oil red O lipid-staining [4]: 41%
- reduction in hepatic triglycerides [4]: 35%
- reduction in macrovesicular steatosis ([4]; 5% EtOH diet): 72%
- reduction in microvesicular steatosis ([4]; 5% EtOH diet): 82%
- isoform selectivity of agonism at human RARβ2 receptors [1]: highly isoform-selective agonists
- reduction in plasma activity of ALT [5]: ~30%
- reduction in plasma activity of AST [5]: ~30%
- EtOH-induced increase in hepatic Fasn mRNA level [6, 9]: eliminated or attenuated
- EtOH-induced increase in hepatic Mogat1 mRNA level [6, 9]: eliminated or attenuated
- EtOH-induced increase in hepatic Pparg mRNA level [6, 9]: eliminated or attenuated
- hepatic CPT1-α transcripts [6, 10]: increased
- hepatic Ppara transcripts [6, 10]: increased
- reduction in zone 2-3 centrilobular CYP2E1 protein levels ([7]; IHC): ~39%
- reduction in hepatic CYP2E1 protein levels ([7]; total protein): approximately 31%
- decrease in hepatic levels of 4-HNE [8]: 36%
- decrease in hepatic levels of 4-HNE (first value) [8]: 33%

From patent US20240390334A1, “COMPOSITIONS AND METHODS FOR MITIGATING ALCOHOL LIVER DISEASE” (Research Foundation of the City University of New York, priority 2021, published 2024)
